The source made the active and inactive calls. The rule behind the calls is not given here.

The values below come from PubChem BioAssay AID1259411 (Chemical Carcinogenesis Research Information System (CCRIS), 2018).

The subject of this data set is rodent carcinogenicity bioassays, tumor incidence. The experiment in a line: CCRIS carcinogenicity studies. The gist of the method:
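Archive of carcinogenicity, mutagenicity, tumor promotion and tumor inhibition results drawn from journals, NCI reports and other sources, expert-reviewed; covers 1985-2011 and is no longer updated.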

With `O=[Si]=O`, the carcinogen call was “inactive; negative” (Species: MOUSE, Strain/Sex: STRAIN-A/MALE, Route: INTRATRACHEAL, Dose: 0, 9.75 MG/KG IN SALINE 1/WK FOR 15 WK (STUDY DURATION: 20 WK)); “active; positive” (Species: RAT, Strain/Sex: F344/FEMALE, Route: INHALATION, Dose: 0, 50 MG/M3 6 HR/D 5 D/WK FOR UP TO 24 MO (STUDY DURATION: 24 MO), Tumor Site: Type of Lesion: LUNG: CARCINOMA OR ADENOMA); “active; positive” (Species: RAT, Strain/Sex: F344/MALE,FEMALE, Route: INHALATION, Dose: 0, 1 MG/M3 6 HR/D 5 D/WK FOR 24 MO (STUDY DURATION: 25.5 MO), Tumor Site: Type of Lesion: LUNG: TUMOR); “inactive; negative” (Species: RAT, Strain/Sex: F344/MALE, Route: INHALATION, Dose: 0, 50 MG/M3 6 HR/D 5 D/WK FOR UP TO 24 MO (STUDY DURATION: 24 MO)); “active; positive” (Species: RAT, Strain/Sex: INBRED-W/MALE, FEMALE, Route: INTRAPERITONEAL, Dose: 20 MG ALKALINE-WASHED MIN-U-SIL CRYSTALS (A COMMERCIAL FINE QUARTZ, 99% PURE) IN 0.4 ML SALINE AUTOCLAVED SUSPENSION (ST, Tumor Site: Type of Lesion: HEMATOPOIETIC SYSTEM: THYMOMA OR LYMPHOSARCOMA, LYMPHOMA); “active; positive” (Species: RAT, Strain/Sex: INBRED-W/MALE, FEMALE, Route: INTRAPLEURAL, Dose: 20 MG ALKALINE-WASHED CRYSTALS (CRISTABOLITE FROM QUARTZ EXPOSED TO HIGH TEMPERATURE) IN A 0.4 ML SALINE AUTOCLAVED SUSP, Tumor Site: Type of Lesion: HEMATOPOIETIC SYSTEM: MALIGNANT HISTIOCYTIC LYMPHOMA, THYMOMA OR LYMPHOSARCOMA, LYMPHOMA). Besides, the carcinogen call (Species: RAT, Strain/Sex: INBRED-W/MALE, FEMALE, Route: INTRAPLEURAL, Dose: 20 MG ALKALINE-WASHED CRYSTALS <5 µM IN SIZE IN A 0.4 ML SALINE AUTOCLAVED SUSPENSION INTO RIGHT AXILLA (STUDY DURATION:, Tumor Site: Type of Lesion: HEMATOPOIETIC SYSTEM: MALIGNANT HISTIOCYTIC LYMPHOMA, MALIGNANT TUMOR) was “active; positive”; the carcinogen call (Species: RAT, Strain/Sex: INBRED-W/MALE, FEMALE, Route: INTRAPLEURAL, Dose: 20 MG ALKALINE-WASHED MIN-U-SIL CRYSTALS (A COMMERCIAL FINE QUARTZ, 99% PURE) IN 0.4 ML SALINE AUTOCLAVED SUSPENSION INT, Tumor Site: Type of Lesion: HEMATOPOIETIC SYSTEM: LYMPHOMA) was “active; positive”; the carcinogen call (Species: Rat, Strain/Sex: Wistar/Female (48/group), Route: Intratracheal, Dose: 3 mg of 0.09-0.2 um particles given as 10 instillations before wk 26, study duration 112 wk or no treatment, Tumor Site: Type of Lesion: Lung: Bronchiolo-alveolar adenoma (2/37 experimental animals vs 0/46 control animals)) was “active; positive, low incidence of benign tumors”.

On to `CC(=O)CC(C)C`, for which the carcinogen call was “equivocal” (Species: Mouse, Strain/Sex: B6C3F1/N/Female, Route: Inhalation, Dose: 0, 450, 900, 1800 ppm 6 hr and 12 min/day, 5 d/wk for 105 wks, Dose: 0, 450, 900, 1800 ppm 6 hr and 12 min/day, 5 d/wk for 105 wks, Tumor Site: Type of Lesion: Liver: Hepatocellular adenoma (13/50, 15/50, 20/50, 23/50), Hepatocellular carcinoma (6/50, 5/50, 6/50, 11/50), Hepatoce, Tumor Site: Type of Lesion: Liver: Hepatocellular adenoma (13/50, 15/50, 20/50, 23/50), Hepatocellular carcinoma (6/50, 5/50, 6/50, 11/50), Hepatoce); “active; positive (ntp describes as some evidence)” (Species: Mouse, Strain/Sex: B6C3F1/N/Male, Route: Inhalation, Dose: 0, 450, 900, 1800 ppm 6 hr and 12 min/day, 5 d/wk for 105 wks, Dose: 0, 450, 900, 1800 ppm 6 hr and 12 min/day, 5 d/wk for 105 wks, Tumor Site: Type of Lesion: Liver: Hepatocellular adenoma (17/50, 25/50, 23/50, 34/50), Hepatocellular carcinoma (12/50, 12/50, 10/50, 9/50), Hepato, Tumor Site: Type of Lesion: Liver: Hepatocellular adenoma (17/50, 25/50, 23/50, 34/50), Hepatocellular carcinoma (12/50, 12/50, 10/50, 9/50), Hepato); “equivocal” (Species: Rat, Strain/Sex: F344/N/Female, Route: Inhalation, Dose: 0, 450, 900, 1800 ppm 6 hr and 12 min/d, 5 d/wk for 104 wks, Dose: 0, 450, 900, 1800 ppm 6 hr and 12 min/d, 5 d/wk for 104 wks, Tumor Site: Type of Lesion: Mesenchymal tumor malignant: (0/50, 0/50, 0/50, 2/50)); “active; positive (ntp describes as some evidence)” (Species: Rat, Strain/Sex: F344/N/Male, Route: Inhalation, Dose: 0, 450, 900, 1800 ppm 6 hr and 12 min/d, 5 d/wk for 104 wks, Dose: 0, 450, 900, 1800 ppm 6 hr and 12 min/d, 5 d/wk for 104 wks, Tumor Site: Type of Lesion: Kidney: Renal tubule adenoma (2/50, 3/50, 3/50, 10/50), Renal tubule carcinoma (0/50, 1/50, 0/50, 2/50), Renal tubule ad, Tumor Site: Type of Lesion: Kidney: Renal tubule adenoma (2/50, 3/50, 3/50, 10/50), Renal tubule carcinoma (0/50, 1/50, 0/50, 2/50), Renal tubule ad).

With `CCN(CC)C(=S)SSC(=S)N(CC)CC`, the carcinogen call runs as follows: (Species: MOUSE, Strain/Sex: B6C3F1/FEMALE, Route: ORAL, Dose: 0, 100, 500 PPM IN DIET, Dose: 0, 100, 500 PPM IN DIET) “inactive; negative”; (Species: MOUSE, Strain/Sex: B6C3F1/MALE, Route: ORAL, Dose: 0, 500, 2000 PPM IN DIET, Dose: 0, 500, 2000 PPM IN DIET) “inactive; negative”; (Species: RAT, Strain/Sex: F344/FEMALE, Route: ORAL, Dose: 0, 300, 600 PPM IN DIET, Dose: 0, 300, 600 PPM IN DIET) “inactive; negative”; (Species: RAT, Strain/Sex: F344/MALE, Route: ORAL, Dose: 0, 300, 600 PPM IN DIET, Dose: 0, 300, 600 PPM IN DIET) “inactive; negative”.

For the compound `CCC(Cl)C(Cl)C(Cl)CC(Cl)C(Cl)C(C)Cl` (stereo unspecified), the carcinogen call (Species: MOUSE, Strain/Sex: B6C3F1/FEMALE, Route: GAVAGE, Dose: 0, 125, 250 MG/KG IN CORN OIL 5 D/WK FOR 103 WK, Dose: 0, 125, 250 MG/KG IN CORN OIL 5 D/WK FOR 103 WK, Tumor Site: Type of Lesion: LIVER: HEPATOCELLULAR ADENOMA, HEPATOCELLULAR ADENOMA OR CARCINOMA, THYROID GLAND: FOLLICULAR CELL ADENOMA, FOLLICULAR C) is “active; positive”; the carcinogen call (Species: MOUSE, Strain/Sex: B6C3F1/MALE, Route: GAVAGE, Dose: 0, 125, 250 MG/KG IN CORN OIL 5 D/WK FOR 103 WK, Dose: 0, 125, 250 MG/KG IN CORN OIL 5 D/WK FOR 103 WK, Tumor Site: Type of Lesion: LIVER: HEPATOCELLULAR ADENOMA, HEPATOCELLULAR ADENOMA OR CARCINOMA) was “active; positive”; the carcinogen call (Species: RAT, Strain/Sex: F344/FEMALE, Route: GAVAGE, Dose: 0, 312, 625 MG/KG IN CORN OIL 5 D/WK FOR 104 WK, Dose: 0, 312, 625 MG/KG IN CORN OIL 5 D/WK FOR 104 WK, Tumor Site: Type of Lesion: LIVER: NEOPLASTIC NODULE, NEOPLASTIC NODULE OR HEPATOCELLULAR CARCINOMA, THYROID GLAND: FOLLICULAR CELL ADENOMA OR CARCI) was “active; positive”; the carcinogen call (Species: RAT, Strain/Sex: F344/MALE, Route: GAVAGE, Dose: 0, 312, 625 MG/KG IN CORN OIL 5 D/WK FOR 104 WK, Dose: 0, 312, 625 MG/KG IN CORN OIL 5 D/WK FOR 104 WK, Tumor Site: Type of Lesion: LIVER: NEOPLASTIC NODULE, NEOPLASTIC NODULE OR HEPATOCELLULAR CARCINOMA, KIDNEY: TUBULAR CELL ADENOMA OR ADENOCARCINOMA) is “active; positive”.
